Each structure is given as a SMILES string.

The experiment concerns the target DNA gyrase (Escherichia coli) (UniProt P0AES6+P0AES4). Nature of the experiment: In vitro activity against Escherichia coli DNA gyrase supercoiling. Format: protein-complex assay.
Molecule `CCc1nc(/C=C2\C(=O)Nc3ccccc32)c[nH]1` showed an MNEC of less than 100 µM. Consider `O=C(/N=N/c1c(O)[nH]c2ccc(Br)cc12)c1ccncc1`, for which the MNEC was greater than 100 µM.

`O=C1Nc2ccccc2/C1=C/c1c[nH]nc1-c1cccs1` came in with an MNEC greater than 100 µM. `O=C1Nc2ccccc2/C1=C/c1cnc[nH]1` returned an MNEC of 100 µM. Molecule `O=C1Nc2ccccc2/C1=C/c1ccccc1N1CCOCC1` came in with an MNEC greater than 100 µM. Turning to `CCCCc1nc(/C=C2\C(=O)Nc3ccccc32)c[nH]1`, the MNEC is 50 µM.

`Cc1ccc2c(c1)/C(=N/N=C/c1c(O)ccc3ccccc13)C(=O)N2` displayed an MNEC greater than 100 µM. As for `Oc1[nH]c2ccccc2c1/N=N/c1n[nH]c2c3ccccc3nc-2n1`, the MNEC is greater than 100 µM. To `O=C1N=C(N2CCOCC2)S/C1=C1\C(=O)Nc2ccccc21` belongs greater than 100 µM. As for `O=C1Nc2ccccc2/C1=C/c1c[nH]c2cc([N+](=O)[O-])ccc12`, the MNEC was greater than 100 µM.

In the case of `Cc1[nH]c2ccccc2c1/C=C1\C(=O)Nc2ccccc21`, the MNEC was greater than 100 µM. `O=C1Nc2ccccc2/C1=N/c1ccc(C(F)(F)F)cc1` registered an MNEC greater than 100 µM. Molecule `CCc1nc(C)c(/C=C2\C(=O)Nc3ccccc32)[nH]1` registered an MNEC of 25 µM. Regarding `O=C1Nc2ccccc2/C1=C/c1ccc([N+](=O)[O-])cc1`, the MNEC was greater than 100 µM. Turning to `O=C1Nc2ccccc2/C1=C/c1c[nH]c(-c2ccccc2)n1`, the MNEC is greater than 100 µM. Molecule `O=C1Nc2ccccc2/C1=C/c1cccnc1` had an MNEC greater than 100 µM.

Values taken from ChEMBL document CHEMBL1141949, “In silico fragment-based discovery of indolin-2-one analogues as potent DNA gyrase inhibitors” (Bioorg Med Chem Lett, 2005).
